Assay results published in ChEMBL document CHEMBL1208782, “Synthesis and pharmacological validation of a novel series of non-steroidal FXR agonists” (Bioorg Med Chem Lett, 2010).
pEC50: −log10 of the molar value.

Experiments:
Format in all cases: functional, cell-based
Progesterone receptor = molecular target: T1, Progesterone receptor (Homo sapiens, UniProt P06401); experiment: Agonist activity at progesterone receptor-LBD expressed in HEK293 cells assessed as Gal4-DBD interaction by cellular mammalian one hybrid assay
T1 sequence (P06401 whole entry): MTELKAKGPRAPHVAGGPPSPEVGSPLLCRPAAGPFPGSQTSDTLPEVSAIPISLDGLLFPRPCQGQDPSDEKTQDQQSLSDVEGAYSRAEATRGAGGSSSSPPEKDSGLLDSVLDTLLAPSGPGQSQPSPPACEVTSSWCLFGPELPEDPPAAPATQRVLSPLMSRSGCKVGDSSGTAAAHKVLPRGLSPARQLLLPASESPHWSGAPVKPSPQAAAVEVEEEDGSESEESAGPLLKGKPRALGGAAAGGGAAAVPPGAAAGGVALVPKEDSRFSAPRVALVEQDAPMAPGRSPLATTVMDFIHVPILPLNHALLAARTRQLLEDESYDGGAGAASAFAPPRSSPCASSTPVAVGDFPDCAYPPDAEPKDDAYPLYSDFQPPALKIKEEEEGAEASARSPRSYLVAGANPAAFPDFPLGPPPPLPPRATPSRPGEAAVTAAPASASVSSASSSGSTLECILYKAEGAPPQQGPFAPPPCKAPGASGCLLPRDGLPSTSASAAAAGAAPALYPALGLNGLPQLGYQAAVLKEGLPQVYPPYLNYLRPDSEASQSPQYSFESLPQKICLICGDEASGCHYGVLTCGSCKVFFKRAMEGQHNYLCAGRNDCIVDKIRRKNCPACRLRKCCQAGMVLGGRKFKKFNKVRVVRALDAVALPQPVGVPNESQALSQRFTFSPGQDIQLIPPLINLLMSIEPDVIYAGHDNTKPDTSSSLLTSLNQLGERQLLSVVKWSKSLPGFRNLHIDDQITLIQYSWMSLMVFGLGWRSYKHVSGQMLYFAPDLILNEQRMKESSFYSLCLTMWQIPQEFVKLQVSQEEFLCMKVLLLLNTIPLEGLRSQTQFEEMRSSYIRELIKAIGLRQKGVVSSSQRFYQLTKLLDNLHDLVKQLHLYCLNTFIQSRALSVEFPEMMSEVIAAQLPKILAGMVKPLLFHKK

Bile acid receptor = molecular target: T2, Bile acid receptor (Homo sapiens, UniProt Q96RI1); experiment: Agonist activity at human […] FXR LBD expressed in HEK293 cells coexpressing GAL4-DNA bindig domain and pFRluc by mammalian one-hybrid assay; details: read-out: EC50
T2 sequence (Q96RI1 whole entry): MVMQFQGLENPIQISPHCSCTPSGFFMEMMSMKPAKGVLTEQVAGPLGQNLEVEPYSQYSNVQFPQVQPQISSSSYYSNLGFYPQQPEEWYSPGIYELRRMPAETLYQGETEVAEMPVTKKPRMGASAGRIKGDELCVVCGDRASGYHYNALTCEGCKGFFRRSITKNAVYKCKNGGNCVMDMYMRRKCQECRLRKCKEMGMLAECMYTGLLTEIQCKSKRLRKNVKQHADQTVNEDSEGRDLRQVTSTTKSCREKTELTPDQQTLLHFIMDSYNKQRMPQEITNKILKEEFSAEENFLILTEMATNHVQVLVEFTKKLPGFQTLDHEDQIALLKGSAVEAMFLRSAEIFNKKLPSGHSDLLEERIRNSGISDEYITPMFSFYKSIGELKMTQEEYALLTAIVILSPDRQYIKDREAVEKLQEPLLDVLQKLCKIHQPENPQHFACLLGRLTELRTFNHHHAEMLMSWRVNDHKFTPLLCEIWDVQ

[1] = molecular target: T3, Oxysterols receptor LXR-alpha (Homo sapiens) (UniProt Q13133); experiment: Agonist activity at LXRalpha-LBD expressed in HEK293 cells assessed as Gal4-DBD interaction by cellular mammalian one hybrid assay relative to T0901317
T3 sequence (whole entry): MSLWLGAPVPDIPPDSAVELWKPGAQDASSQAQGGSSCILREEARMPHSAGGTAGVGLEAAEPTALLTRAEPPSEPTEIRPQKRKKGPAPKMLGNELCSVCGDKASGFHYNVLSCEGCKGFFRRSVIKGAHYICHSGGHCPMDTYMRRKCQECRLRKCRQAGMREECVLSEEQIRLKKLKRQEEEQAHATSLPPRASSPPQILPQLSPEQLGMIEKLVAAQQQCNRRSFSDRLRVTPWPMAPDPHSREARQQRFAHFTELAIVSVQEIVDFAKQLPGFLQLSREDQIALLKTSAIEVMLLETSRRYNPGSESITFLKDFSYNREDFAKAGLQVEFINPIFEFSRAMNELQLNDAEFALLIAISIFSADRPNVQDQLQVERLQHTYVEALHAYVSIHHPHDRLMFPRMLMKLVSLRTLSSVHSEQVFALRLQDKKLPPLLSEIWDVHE

[2] = molecular target: T4, Glucocorticoid receptor (Homo sapiens) (UniProt P04150); experiment: Agonist activity at GR-LBD expressed in HEK293 cells assessed as Gal4-DBD interaction by cellular mammalian one hybrid assay relative to glucocorticoid
T4 sequence (whole entry): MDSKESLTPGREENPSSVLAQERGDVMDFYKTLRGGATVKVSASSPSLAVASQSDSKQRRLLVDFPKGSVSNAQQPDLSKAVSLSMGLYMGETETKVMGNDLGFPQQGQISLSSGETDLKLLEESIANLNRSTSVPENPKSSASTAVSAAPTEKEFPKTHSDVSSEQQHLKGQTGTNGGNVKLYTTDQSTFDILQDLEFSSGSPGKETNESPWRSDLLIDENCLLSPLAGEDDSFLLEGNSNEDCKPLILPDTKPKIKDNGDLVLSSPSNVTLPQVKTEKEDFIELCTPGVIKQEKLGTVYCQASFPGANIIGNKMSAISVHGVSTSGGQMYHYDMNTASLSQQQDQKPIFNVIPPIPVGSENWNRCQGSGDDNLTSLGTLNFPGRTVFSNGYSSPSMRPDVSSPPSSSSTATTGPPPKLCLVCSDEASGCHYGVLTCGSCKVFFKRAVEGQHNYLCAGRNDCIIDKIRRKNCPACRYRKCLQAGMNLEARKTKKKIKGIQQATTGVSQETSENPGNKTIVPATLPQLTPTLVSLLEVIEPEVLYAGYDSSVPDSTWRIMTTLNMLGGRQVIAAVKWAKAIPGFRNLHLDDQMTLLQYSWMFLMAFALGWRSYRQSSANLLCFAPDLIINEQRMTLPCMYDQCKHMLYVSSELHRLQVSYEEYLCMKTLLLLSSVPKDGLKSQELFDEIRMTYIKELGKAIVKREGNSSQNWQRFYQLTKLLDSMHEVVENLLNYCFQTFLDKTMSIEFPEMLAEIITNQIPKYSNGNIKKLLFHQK

CN(Cc1ccc(C(=O)O)cc1)c1ccc(OCc2c(-c3c(Cl)cccc3Cl)noc2C2CC2)nc1C(F)(F)F
pEC50 (Progesterone receptor): < 5.00
pEC50 (Bile acid receptor): 7.52
Efficacy [1]: 0%
Efficacy [2]: 0%

CN(Cc1cccc(C(=O)O)c1)c1ccc(OCc2c(-c3c(Cl)cccc3Cl)noc2C2CC2)nc1C(F)(F)F
pEC50 (Progesterone receptor): < 5.00
pEC50 (Bile acid receptor): 8.05
Efficacy [1]: 0%
Efficacy [2]: 0%

CC(C)c1onc(-c2c(Cl)cccc2Cl)c1COc1ccc(N(C)Cc2ccc(C(=O)O)cc2)c(C(F)(F)F)n1
pEC50 (Progesterone receptor): < 5.00
pEC50 (Bile acid receptor): 7.05
Efficacy [1]: 0%
Efficacy [2]: 0%
